According to patent US20230025510A1, “BIARYL ETHER-TYPE QUINAZOLINE DERIVATIVES” (DAIICHI SANKYO COMPANY, LIMITED, priority 2018, published 2023):

Key:
Type in all cases: cell-based
Ba/F3-Mock cells = assay: Cell proliferation suppression test (CellTiter-Glo, GI50), Ba/F3-Mock; conditions: Mus musculus, BaF3, 72 h, 5 ng/mL IL-3, 3 days, N=4
Outline: (§1)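 Ba/F3 lines in RPMI 1640/10% FBS without puromycin; IL-3 5 ng/mL added for Mock, EGF 100 ng/mL for EGFR WT. Cells treated 3 days at 37 °C, 5% CO2; ATP measured by CellTiter-Glo 2.0 on day 0 and day 3 (N=4). GI50 is the concentration inhibiting 50% of day 0–3 proliferation.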

Ba/F3-EGFR WT cells = assay: Cell proliferation suppression test (CellTiter-Glo, GI50), Ba/F3-EGFR WT; conditions: Mus musculus, 72 h, 100 ng/mL EGF, 3 days, N=4
Outline: as §1

[1] = system: Ba/F3-EGFR ins. ASV cells; assay: Cell proliferation suppression test (CellTiter-Glo, GI50), Ba/F3-EGFR ins. ASV; conditions: Mus musculus, 72 h, 3 days, N=4
Outline: as §1

[2] = system: Ba/F3-EGFR ins. SVD cells; assay: Cell proliferation suppression test (CellTiter-Glo, GI50), Ba/F3-EGFR ins. SVD; conditions: Mus musculus, 72 h, 3 days, N=4
Outline: as §1

SMILES	GI50 (Ba/F3-Mock cells) [nM]	GI50 (Ba/F3-EGFR WT cells) [nM]	GI50 [1] [nM]	GI50 [2] [nM]
COc1cc2ncnc(Nc3ccc(Oc4nn(CC(=O)NC(C)(C)C)cc4F)cc3Cl)c2cc1NC(=O)/C=C/CN1CCC(F)C1 (racemic) [Example 55, rac-(2E)-N-{4-[4-({1-[2-(tert-Butylamino)-2-oxoethyl]-4-fluoro-1H-pyrazol-3-yl}oxy)-2-chloroanilino]-7-methoxyquinazolin-6-yl}-4-(3-fluoropyrrolidin-1-yl)but-2-enamide]	4290	441	12.9	10.3
COc1cc2ncnc(Nc3ccc(Oc4cccc(-c5nnc(C)o5)c4)cc3F)c2cc1NC(=O)/C=C/CN(C)C [Example 39, (2E)-4-(Dimethylamino)-N-(4-{2-fluoro-4-[3-(5-methyl-1,3,4-oxadiazol-2-yl)phenoxy]anilino}-7-methoxyquinazolin-6-yl)but-2-enamide]	1150	161	12.2	58.7
C=CC(=O)N1CCC(Oc2cc3c(Nc4ccc(Oc5ccn(-c6cnc(OC)nc6)n5)cc4F)ncnc3cc2OC)CC1 [Example 14, 1-(4-{[4-(2-Fluoro-4-{[1-(2-methoxypyrimidin-5-yl)-1H-pyrazol-3-yl]oxy}anilino)-7-methoxyquinazolin-6-yl]oxy}piperidin-1-yl)prop-2-en-1-one]	5950	429	13.7	13.5
COc1cc2ncnc(Nc3ccc(Oc4nn(CC(=O)NC(C)(C)C)cc4F)cc3Cl)c2cc1NC(=O)/C=C/CN1CCOCC1 [Example 54, (2E)-N-{4-[4-({1-[2-(tert-Butylamino)-2-oxoethyl]-4-fluoro-1H-pyrazol-3-yl}oxy)-2-chloroanilino]-7-methoxyquinazolin-6-yl}-4-(morpholin-4-yl)but-2-enamide]	> 10000	2890	33.4	50.6
C=CC(=O)N1CCC(Oc2cc3c(Nc4ccc(Oc5ccn(-c6ccc(F)nc6)n5)cc4F)ncnc3cc2OC)CC1 [Example 32]	> 10000	162	11.9	12.7
COc1cc2ncnc(Nc3ccc(Oc4nc(-c5nnc(C6CC6)o5)cs4)cc3F)c2cc1NC(=O)/C=C/CN1CC[C@@H](OC)C1 [Example 63, (2E)-N-[4-(4-{[4-(5-Cyclopropyl-1,3,4-oxadiazol-2-yl)-1,3-thiazol-2-yl]oxy}-2-fluoroanilino)-7-methoxyquinazolin-6-yl]-4-[(3R)-3-methoxypyrrolidin-1-yl]but-2-enamide]	1060	129	49.5	81.8
C=CC(=O)N1CCC(Oc2cc3c(Nc4ccc(Oc5nc(-c6cncc(F)c6)cs5)cc4F)ncnc3cc2OC)CC1 [Example 38, 1-(4-{[4-(2-Fluoro-4-{[4-(5-fluoropyridin-3-yl)-1,3-thiazol-2-yl]oxy}anilino)-7-methoxyquinazolin-6-yl]oxy}piperidin-1-yl)prop-2-en-1-one]	> 10000	174	17	18.3
CCOc1cc2ncnc(Nc3ccc(Oc4cccc(-c5nnc(C6CC6)o5)c4)cc3F)c2cc1NC(=O)/C=C/CN(C)C [Example 51, (2E)-N-(4-{4-[3-(5-Cyclopropyl-1,3,4-oxadiazol-2-yl)phenoxy]-2-fluoroanilino}-7-ethoxyquinazolin-6-yl)-4-(dimethylamino)but-2-enamide]	806	104	11.8	20.5
C=CC(=O)N1CCC(Oc2cc3c(Nc4ccc(Oc5nc(-c6ccc(C)nc6)cs5)cc4F)ncnc3cc2OC)CC1 [Example 37, 1-(4-{[4-(2-Fluoro-4-{[4-(6-methylpyridin-3-yl)-1,3-thiazol-2-yl]oxy}anilino)-7-methoxyquinazolin-6-yl]oxy}piperidin-1-yl)prop-2-en-1-one]	> 10000	163	10.5	5.7
C=CC(=O)N1CCC(Oc2cc3c(Nc4ccc(Oc5cccc(-c6nnc(C)o6)c5)cc4F)ncnc3cc2OC)CC1 [Example 17, 1-{4-[(4-{2-Fluoro-4-[3-(5-methyl-1,3,4-oxadiazol-2-yl)phenoxy]anilino}-7-methoxyquinazolin-6-yl)oxy]piperidin-1-yl}prop-2-en-1-one]	8220	186	10.3	8
C=CC(=O)N1CCC(Oc2cc3c(Nc4ccc(Oc5cccc(C(=O)NC(C)(C)C)c5)cc4F)ncnc3cc2OC)CC1 [Example 1, N-tert-Butyl-3-{3-fluoro-4-[(7-methoxy-6-{[1-(prop-2-enoyl)piperidin-4-yl]oxy}quinazolin-4-yl)amino]phenoxy}benzamide]	7900	115	15.5	8.9
COc1cc2ncnc(Nc3ccc(Oc4cccc(-c5nnc(C)s5)c4)cc3F)c2cc1NC(=O)/C=C/CN(C)C [Example 44, (2E)-4-(Dimethylamino)-N-(4-{2-fluoro-4-[3-(5-methyl-1,3,4-thiadiazol-2-yl)phenoxy]anilino}-7-methoxyquinazolin-6-yl)but-2-enamide]	724	167	15.5	52.2
[2H]C([2H])([2H])C(NC(=O)n1ccc(Oc2ccc(Nc3ncnc4cc(OC)c(OC5CCN(C(=O)C=C)CC5)cc34)c(F)c2)n1)(C([2H])([2H])[2H])C([2H])([2H])[2H] [Example 25, 3-{3-Fluoro-4-[(7-methoxy-6-{[1-(prop-2-enoyl)piperidin-4-yl]oxy}quinazolin-4-yl)amino]phenoxy}-N-[2-(^2H3)methyl(^2H6)propan-2-yl]-1H-pyrazole-1-carboxamide]	> 10000	180	18.8	12.4
COc1cc2ncnc(Nc3ccc(Oc4nn(CC(=O)NC(C)(C)C)cc4F)cc3F)c2cc1NC(=O)/C=C/CN1CC(OC)C1 [Example 60, (2E)-N-{4-[4-({1-[2-(tert-Butylamino)-2-oxoethyl]-4-fluoro-1H-pyrazol-3-yl}oxy)-2-fluoroanilino]-7-methoxyquinazolin-6-yl}-4-(3-methoxyazetidin-1-yl)but-2-enamide]	6030	497	11.9	10.7
